In one data set the test system is L1210. Kind of data set: In vitro antitumor activity against murine leukemia L1210 after 48 hour. In kind it is functional. The note with it: Mus musculus, L1210, 48 h; read-out: ID50 (the source's name).
Data set [1] is described as follows: Compound was evaluated for its pKa (weak acid) value. In kind it is physicochemical.

Regarding `Cc1c2c(c(C)c3c[n+](C)ccc13)C1=CC(=O)C=CC1=N2`, the IC50 in the data set on L1210 amounted to 0.05 µM.
Usually pKa stands for the pH at which an ionisable group is half protonated. Lower therefore signals a stronger acid or weaker base. As for `Cc1c2cc[n+](C)cc2c(C)c2c3c([nH]c12)C=CC(=O)C3=O`, the pKa in data set [1] was determined as 5.1. For the same molecule, the IC50 with L1210 was found to be 9.6 µM.
For `COC1=CC(=O)C(=O)c2c1nc1c(C)c3ccn(C)cc3c(C)c21`, in the data set with L1210, the IC50 is 5.8 µM.

These data come from ChEMBL document CHEMBL1122214, “omicron-Quinone formation in the biochemical oxidation of the antitumor drug N2-methyl-9-hydroxyellipticinium acetate” (J Med Chem, 1983).
